Earlier results on one molecule are cited in US10722577B2, “Methods for treating GI syndrome and graft versus host disease” (Sloan Kettering Institute for Cancer Research, priority 2012, dated 2020).

The subject of this data set is in vitro models of GvHD. To be noted: previous work, U.S. Ser. No. 12/599,280; cited from earlier work.

On to `C[C@@H]1[C@H](O)[C@@H](C)/C=C/C=C/CC/C=C/C=C/C=C/C=C/C(O[C@H]2O[C@H](C)[C@@H](O)[C@H](N)[C@@H]2O)CC2O[C@](O)(CC(O)C(O)CCC(O)CC(O)CC(O)CC(=O)O[C@H]1C)CC(O)C2C(=O)O` (stereo partly shown) [nystatin], for which the “apoptosis in in vitro models of GvHD” value is “beneficial effects in reducing apoptosis”.
